{"source": "patent US12404262B2", "about": "(priority 2021, dated 2025)", "conditions": "1.0% DMSO, 24-hour incubation at ambient temperature, maximum theoretical 100 μM; for pH 2 solubility: 0.1N HCl, first value of the cell; for pH 7 solubility: 1×PBS buffer (pH 7.4), second value of the cell"}
{"smiles": "CN(CCNC(=N)N)C(=O)N(c1nn(CC(F)(F)F)c2c(-c3ccc(C#CC(C)(C)S(C)(=O)=O)nc3[C@H](Cc3cc(F)cc(F)c3)NC(=O)Cn3nc(C(F)(F)F)c4c3C(F)(F)[C@@H]3C[C@H]43)ccc(Cl)c12)S(C)(=O)=O", "note": "[Compound 75, N—((S)-1-(3-(4-chloro-3-(N-((2-guanidinoethyl)(methyl)carbamoyl)methylsulfonamido)-1-(2,2,2-trifluoroethyl)-1H-indazol-7-yl)-6-(3-methyl-3-(methylsulfonyl)but-1-yn-1-yl)pyridin-2-yl)-2-(3,5-difluorophenyl)ethyl)-2-((3bS,4aR)-5,5-difluoro-3-(trifluoromethyl)-3b,4,4a,5-tetrahydro-1H-cyclopropa[3,4]cyclopenta[1,2-c]pyrazol-1-yl)acetamide]", "values": [{"measurement": "pH 2 solubility", "value": 16, "unit": "μM"}, {"measurement": "pH 7 solubility", "value": 13, "unit": "μM"}]}
{"smiles": "CC(C)(C#Cc1ccc(-c2ccc(Cl)c3c(N(C(=O)NCCNC(=O)C(=O)O)S(C)(=O)=O)nn(CC(F)(F)F)c23)c([C@H](Cc2cc(F)cc(F)c2)NC(=O)Cn2nc(C(F)(F)F)c3c2C(F)(F)[C@@H]2C[C@H]32)n1)S(C)(=O)=O", "note": "[Compound 77, 2-((2-(3-(4-chloro-7-(2-((S)-1-(2-((3bS,4aR)-5,5-difluoro-3-(trifluoromethyl)-3b,4,4a,5-tetrahydro-1H-cyclopropa[3,4]cyclopenta[1,2-c]pyrazol-1-yl)acetamido)-2-(3,5-difluorophenyl)ethyl)-6-(3-methyl-3-(methylsulfonyl)but-1-yn-1-yl)pyridin-3-yl)-1-(2,2,2-trifluoroethyl)-1H-indazol-3-yl)-3-(methylsulfonyl)ureido)ethyl)amino)-2-oxoacetic acid]", "values": [{"measurement": "pH 2 solubility", "value": 21, "unit": "μM"}, {"measurement": "pH 7 solubility", "value": 1, "unit": "μM"}]}
{"smiles": "CC(C)(C#Cc1ccc(-c2ccc(Cl)c3c(N(C(=O)N(CC(=O)O)CC(=O)O)S(C)(=O)=O)nn(CC(F)(F)F)c23)c([C@H](Cc2cc(F)cc(F)c2)NC(=O)Cn2nc(C(F)(F)F)c3c2C(F)(F)[C@@H]2C[C@H]32)n1)S(C)(=O)=O", "note": "[Compound 78, 2,2′-(((4-chloro-7-(2-((S)-1-(2-((3bS,4aR)-5,5-difluoro-3-(trifluoromethyl)-3b,4,4a,5-tetrahydro-1H-cyclopropa[3,4]cyclopenta[1,2-c]pyrazol-1-yl)acetamido)-2-(3,5-difluorophenyl)ethyl)-6-(3-methyl-3-(methylsulfonyl)but-1-yn-1-yl)pyridin-3-yl)-1-(2,2,2-trifluoroethyl)-1H-indazol-3-yl)(methylsulfonyl)carbamoyl)azanediyl)diacetic acid]", "values": [{"measurement": "pH 2 solubility", "value": 14, "unit": "μM"}, {"measurement": "pH 7 solubility", "value": 22, "unit": "μM"}]}
{"smiles": "CN(CCCN)C(=O)N(c1nn(CC(F)(F)F)c2c(-c3ccc(C#CC(C)(C)S(C)(=O)=O)nc3[C@H](Cc3cc(F)cc(F)c3)NC(=O)Cn3nc(C(F)(F)F)c4c3C(F)(F)[C@@H]3C[C@H]43)ccc(Cl)c12)S(C)(=O)=O", "note": "[Compound 79, N—((S)-1-(3-(3-(N-((3-aminopropyl)(methyl)carbamoyl)methylsulfonamido)-4-chloro-1-(2,2,2-trifluoroethyl)-1H-indazol-7-yl)-6-(3-methyl-3-(methylsulfonyl)but-1-yn-1-yl)pyridin-2-yl)-2-(3,5-difluorophenyl)ethyl)-2-((3bS,4aR)-5,5-difluoro-3-(trifluoromethyl)-3b,4,4a,5-tetrahydro-1H-cyclopropa[3,4]cyclopenta[1,2-c]pyrazol-1-yl)acetamide]", "values": [{"measurement": "pH 2 solubility", "value": 59, "unit": "μM"}, {"measurement": "pH 7 solubility", "value": 14, "unit": "μM"}]}
{"smiles": "CN(C(=O)N(c1nn(CC(F)(F)F)c2c(-c3ccc(C#CC(C)(C)S(C)(=O)=O)nc3[C@H](Cc3cc(F)cc(F)c3)NC(=O)Cn3nc(C(F)(F)F)c4c3C(F)(F)[C@@H]3C[C@H]43)ccc(Cl)c12)S(C)(=O)=O)C(C)(C)C(=O)OCOP(=O)(O)O", "note": "[Compound 85, (phosphonooxy)methyl 2-(3-(4-chloro-7-(2-((S)-1-(2-((3bS,4aR)-5,5-difluoro-3-(trifluoromethyl)-3b,4,4a,5-tetrahydro-1H-cyclopropa[3,4]cyclopenta[1,2-c]pyrazol-1-yl)acetamido)-2-(3,5-difluorophenyl)ethyl)-6-(3-methyl-3-(methylsulfonyl)but-1-yn-1-yl)pyridin-3-yl)-1-(2,2,2-trifluoroethyl)-1H-indazol-3-yl)-1-methyl-3-(methylsulfonyl)ureido)-2-methylpropanoate]", "values": [{"measurement": "pH 2 solubility", "value": 5, "unit": "μM"}, {"measurement": "pH 7 solubility", "value": 65, "unit": "μM"}]}
{"smiles": "COC(=O)N(c1nn(CC(F)(F)F)c2c(-c3ccc(C#CC(C)(C)S(C)(=O)=O)nc3[C@H](Cc3cc(F)cc(F)c3)NC(=O)Cn3nc(C(F)(F)F)c4c3C(F)(F)[C@@H]3C[C@H]43)ccc(Cl)c12)S(C)(=O)=O", "note": "[Compound 89, methyl (4-chloro-7-(2-((S)-1-(2-((3bS,4aR)-5,5-difluoro-3-(trifluoromethyl)-3b,4,4a,5-tetrahydro-1H-cyclopropa[3,4]cyclopenta[1,2-c]pyrazol-1-yl)acetamido)-2-(3,5-difluorophenyl)ethyl)-6-(3-methyl-3-(methylsulfonyl)but-1-yn-1-yl)pyridin-3-yl)-1-(2,2,2-trifluoroethyl)-1H-indazol-3-yl)(methylsulfonyl)carbamate]", "values": [{"measurement": "pH 2 solubility", "value": "3/3 μM"}, {"measurement": "pH 7 solubility", "value": "3/3 μM"}]}
{"smiles": "CC(C)(C#Cc1ccc(-c2ccc(Cl)c3c(N(C(=O)OCOC(=O)/C=C/C(=O)O)S(C)(=O)=O)nn(CC(F)(F)F)c23)c([C@H](Cc2cc(F)cc(F)c2)NC(=O)Cn2nc(C(F)(F)F)c3c2C(F)(F)[C@@H]2C[C@H]32)n1)S(C)(=O)=O", "note": "[Compound 93, (E)-4-((((4-chloro-7-(2-((S)-1-(2-((3bS,4aR)-5,5-difluoro-3-(trifluoromethyl)-3b,4,4a,5-tetrahydro-1H-cyclopropa[3,4]cyclopenta[1,2-c]pyrazol-1-yl)acetamido)-2-(3,5-difluorophenyl)ethyl)-6-(3-methyl-3-(methylsulfonyl)but-1-yn-1-yl)pyridin-3-yl)-1-(2,2,2-trifluoroethyl)-1H-indazol-3-yl)(methylsulfonyl)carbamoyl)oxy)methoxy)-4-oxobut-2-enoic acid]", "values": [{"measurement": "pH 2 solubility", "value": 1, "unit": "μM"}, {"measurement": "pH 7 solubility", "value": 22, "unit": "μM"}]}
{"smiles": "C[C@H](O)[C@H](C)OC(=O)N(c1nn(CC(F)(F)F)c2c(-c3ccc(C#CC(C)(C)S(C)(=O)=O)nc3[C@H](Cc3cc(F)cc(F)c3)NC(=O)Cn3nc(C(F)(F)F)c4c3C(F)(F)[C@@H]3C[C@H]43)ccc(Cl)c12)S(C)(=O)=O", "note": "[Compound 95, (2S,3S)-3-hydroxybutan-2-yl (4-chloro-7-(2-((S)-1-(2-((3bS,4aR)-5,5-difluoro-3-(trifluoromethyl)-3b,4,4a,5-tetrahydro-1H-cyclopropa[3,4]cyclopenta[1,2-c]pyrazol-1-yl)acetamido)-2-(3,5-difluorophenyl)ethyl)-6-(3-methyl-3-(methylsulfonyl)but-1-yn-1-yl)pyridin-3-yl)-1-(2,2,2-trifluoroethyl)-1H-indazol-3-yl)(methylsulfonyl)carbamate]", "values": [{"measurement": "pH 2 solubility", "value": 1, "unit": "μM"}, {"measurement": "pH 7 solubility", "value": 3, "unit": "μM"}]}
{"smiles": "C[C@H](OC(=O)N(c1nn(CC(F)(F)F)c2c(-c3ccc(C#CC(C)(C)S(C)(=O)=O)nc3[C@H](Cc3cc(F)cc(F)c3)NC(=O)Cn3nc(C(F)(F)F)c4c3C(F)(F)[C@@H]3C[C@H]43)ccc(Cl)c12)S(C)(=O)=O)[C@H](C)OP(=O)(O)O", "note": "[Compound 96, (2S,3S)-3-(phosphonooxy)butan-2-yl (4-chloro-7-(2-((S)-1-(2-((3bS,4aR)-5,5-difluoro-3-(trifluoromethyl)-3b,4,4a,5-tetrahydro-1H-cyclopropa[3,4]cyclopenta[1,2-c]pyrazol-1-yl)acetamido)-2-(3,5-difluorophenyl)ethyl)-6-(3-methyl-3-(methylsulfonyl)but-1-yn-1-yl)pyridin-3-yl)-1-(2,2,2-trifluoroethyl)-1H-indazol-3-yl)(methylsulfonyl)carbamate]", "values": [{"measurement": "pH 2 solubility", "value": 1, "unit": "μM"}, {"measurement": "pH 7 solubility", "value": 99, "unit": "μM"}]}
{"smiles": "CC(C)(C#Cc1ccc(-c2ccc(Cl)c3c(N(C(=O)OCCCO)S(C)(=O)=O)nn(CC(F)(F)F)c23)c([C@H](Cc2cc(F)cc(F)c2)NC(=O)Cn2nc(C(F)(F)F)c3c2C(F)(F)[C@@H]2C[C@H]32)n1)S(C)(=O)=O", "note": "[Compound 97, 3-hydroxypropyl (4-chloro-7-(2-((S)-1-(2-((3bS,4aR)-5,5-difluoro-3-(trifluoromethyl)-3b,4,4a,5-tetrahydro-1H-cyclopropa[3,4]cyclopenta[1,2-c]pyrazol-1-yl)acetamido)-2-(3,5-difluorophenyl)ethyl)-6-(3-methyl-3-(methylsulfonyl)but-1-yn-1-yl)pyridin-3-yl)-1-(2,2,2-trifluoroethyl)-1H-indazol-3-yl)(methylsulfonyl)carbamate]", "values": [{"measurement": "pH 2 solubility", "value": 1, "unit": "μM"}, {"measurement": "pH 7 solubility", "value": 2, "unit": "μM"}]}
{"smiles": "CC(C)(C#Cc1ccc(-c2ccc(Cl)c3c(N(C(=O)OCCCOP(=O)(O)O)S(C)(=O)=O)nn(CC(F)(F)F)c23)c([C@H](Cc2cc(F)cc(F)c2)NC(=O)Cn2nc(C(F)(F)F)c3c2C(F)(F)[C@@H]2C[C@H]32)n1)S(C)(=O)=O", "note": "[Compound 98, 3-(phosphonooxy)propyl (4-chloro-7-(2-((S)-1-(2-((3bS,4aR)-5,5-difluoro-3-(trifluoromethyl)-3b,4,4a,5-tetrahydro-1H-cyclopropa[3,4]cyclopenta[1,2-c]pyrazol-1-yl)acetamido)-2-(3,5-difluorophenyl)ethyl)-6-(3-methyl-3-(methylsulfonyl)but-1-yn-1-yl)pyridin-3-yl)-1-(2,2,2-trifluoroethyl)-1H-indazol-3-yl)(methylsulfonyl)carbamate]", "values": [{"measurement": "pH 2 solubility", "value": 1, "unit": "μM"}, {"measurement": "pH 7 solubility", "value": 100, "unit": "μM"}]}
{"smiles": "CC(C)(C#Cc1ccc(-c2ccc(Cl)c3c(N(C(=O)OCCO)S(C)(=O)=O)nn(CC(F)(F)F)c23)c([C@H](Cc2cc(F)cc(F)c2)NC(=O)Cn2nc(C(F)(F)F)c3c2C(F)(F)[C@@H]2C[C@H]32)n1)S(C)(=O)=O", "note": "[Compound 99, 2-hydroxyethyl (4-chloro-7-(2-((S)-1-(2-((3bS,4aR)-5,5-difluoro-3-(trifluoromethyl)-3b,4,4a,5-tetrahydro-1H-cyclopropa[3,4]cyclopenta[1,2-c]pyrazol-1-yl)acetamido)-2-(3,5-difluorophenyl)ethyl)-6-(3-methyl-3-(methylsulfonyl)but-1-yn-1-yl)pyridin-3-yl)-1-(2,2,2-trifluoroethyl)-1H-indazol-3-yl)(methylsulfonyl)carbamate]", "values": [{"measurement": "pH 2 solubility", "value": "1/1 μM"}, {"measurement": "pH 7 solubility", "value": "1/1 μM"}]}
